Reference: US20240226065A1, “USE OF RAGE INHIBITORS TO TREAT CANCER-RELATED COGNITIVE DECLINE” (Georgetown University, priority 2021, published 2024)

Test system: APOE4 mice
Assay: Barnes maze (spatial learning and memory) after doxorubicin treatment in APOE4 mice
Assay type: in vivo, mouse
Settings: female APOE4 mice
Protocol: A study was conducted to evaluate the effects of RAGE inhibition on preventing CRCD. The study was performed using a mouse model of C57BL/6 J mice having the human APOE4 allele in the mouse APOE gene locus.
In the study, 24 female APOE mice were divided evenly into three treatment groups: Group 1, which received a vehicle control; Group 2, which received doxorubicin, a chemotherapy medication used to treat a variety of cancers that include breast cancer, bladder cancer, Kaposi's sarcoma, lymphoma, and acute lymphocytic leukemia; and Group 3, which received doxorubicin and FPS-ZM1, RAGE antagonist. Groups 2 and 3 were administered the doxorubicin as two doses of 5 mg/kg, separated by one week. Group 3 was administered 2 mg/kg of FPS-ZMI twice per week by intraperitoneal injection starting one week before the first administration of doxorubicin and continuing throughout the study.
Four weeks after doxorubicin treatment (or the vehicle control) was completed, mice were analyzed for hippocampal based memory via the Barnes maze (San Diego Instruments Inc., San Diego, CA). […] The apparatus was captured by overhead video and assessed using ANY-maze™ software. […]
The time to identify the correct (escape) hole on the final day is compared between groups. Primary latency, defined as the time for the mouse to make a first nose poke into the escape hole, was assessed. […]

| Structure (SMILES) | primary latency (latency to identify the escape hole) (Group 3: doxorubicin two doses of 5 mg/kg plus FPS-ZM1 2 mg/kg intraperitoneal twice per week from one week before doxorubicin, training day 4, p=0.12 vs Group 2) [s] | primary latency (time to first nose poke into the escape hole) (Group 2: doxorubicin two doses of 5 mg/kg one week apart, Barnes maze training day 4, four weeks after doxorubicin, Group 1 control 24.6 seconds) [s] |
| --- | --- | --- |
| O=C(c1ccc(Cl)cc1)N(Cc1ccccc1)C1CCCCC1 [FPS-ZMI] | 28.0 |  |
| COc1cccc2c1C(=O)c1c(O)c3c(c(O)c1C2=O)C[C@@](O)(C(=O)CO)C[C@@H]3O[C@H]1C[C@H](N)[C@H](O)[C@H](C)O1 [doxorubicin] |  | 58.2 |
